From the NIST ThermoML archive (doi:10.1016/j.jct.2018.12.040)
± gives the expanded uncertainty stated by the source.

Settings: Liquid; for mass density: 298.15 K, 101.33 kPa, Pycnometric method

Row | Normal boiling temperature (Distillation) [°C] | Compound | mass density [kg/m3] | Normal boiling temperature (boiling in a capillary) [°C]
1 | 160 ± 2 | C1CC1C(C1CC1)C1CC1 [tricyclopropylmethane] | 850 ± 1 | –
2 | – | O=[N+]([O-])C(C1CC1)(C1CC1)[N+](=O)[O-] [dicyclopropyldinitromethane] | 1239.7 ± 1 | 290 ± 3
